# Measurements as given in patent US10231966B2, “Combination therapy for treating pulmonary hypertension” (priority 2016, dated 2019).
# Read-outs that look alike come from different tables or passages of the source.
# How the values were obtained:
# [1] = system: rat monocrotaline model of PAH; settings: background statement; cited from earlier work
# [2] = system: PDGFRβ isoform, PDGFRα isoform; settings: background statement; cited from earlier work
# [3] = system: patients with advanced PAH; settings: background statement; cited from earlier work
# [4] = in vivo; settings: male, Sprague Dawley, rat
# [5] = system: AAV-PDGFB overexpression SU5416 hypoxia rat model of PH; assay: AAV-PDGFB SU5416 hypoxia study: RVSP, right ventricular hypertrophy, lumen/media ratio; assay type: in vivo
# [6] = rat, in vivo, 0.4 mg/kg
# [7] = molecular target: T1, pPDGFRβ (Y1021) (Rattus norvegicus, UniProt Q05030); assay: Western blot of pPDGFRβ (Y1021) in lung lysates of rats with pulmonary hypertension after inhaled Compound 1; assay type: in vivo; settings: pPDGFRβ (Y1021) vs total PDGFRβ
# T1 construct: Lung tissue samples were homogenized in pH 7.4 lysis buffer; from tissue; host or cells: rat lung (male SD rats)
# [8] = molecular target: PDGFRβ (Homo sapiens, UniProt P09619); settings: human lung fibroblasts
# [9] = molecular target: T1, pPDGFRβ (Y1021); assay: Western blot of lung pPDGFRβ (Y1021) in the AAV-PDGFB SU5416 hypoxia model; assay type: in vivo; settings: vs V-V and TA-V, total PDGFRβ and β actin controls
# Experimental: Four weeks later, 20 mg/kg of semaxanib (SU5416) was administered using intraperitoneal (i.p.) injection, and the rats were housed in a hypoxia chamber at fraction of inspired oxygen (FiO2) 10% for 3 weeks. […] Daily treatments were administered starting day 2 after removing the rats from the hypoxia chamber and were continued for 4 weeks (28 days). […] Lysates were normalized and separated on 7.5% or 12% polyacrylamide gels and transferred to nitrocellulose membranes. After blocking, the membranes were probed with one of the following antibodies: anti-PDGFRβ, anti-phospho ([…])-PDGFRβ, pMYPT, MYPT, pSTAT3, or STAT3. The samples were incubated overnight on a shaker, followed by a 1 hour incubation with secondary antibodies conjugated with HRP. Bound antibodies were detected by chemiluminescence using an enhanced chemiluminescence (ECL) detection system, and quantified by densitometry using a Licor C-Digit® Blot Scanner.
# [10] = molecular target: T2, phosphorylated PDGFRα (Y751) (Rattus norvegicus, UniProt P20786); assay: Immunohistochemistry of lung sections for pPDGFRα in the AAV-PDGFB SU5416 hypoxia model; assay type: in vivo; settings: vs V-V and TA-V
# T2 construct: from tissue; host or cells: rat lung sections (male SD rats)
# Experimental: (§1) Four weeks later, 20 mg/kg of semaxanib (SU5416) was administered using intraperitoneal (i.p.) injection, and the rats were housed in a hypoxia chamber at fraction of inspired oxygen (FiO2) 10% for 3 weeks. […] Daily treatments were administered starting day 2 after removing the rats from the hypoxia chamber and were continued for 4 weeks (28 days). Antigen retrieval was performed using heat-induced epitope retrieval. Immunohistochemistry of lung sections was performed for PDGFBB, total PDGFRα, total PDGFRβ, pPDGFRα, and pPDGFRβ. Signal detection was performed with an EXPOSE horseradish peroxidase/diaminobenzidine (HRP/DAB) kit.
# [11] = molecular target: T3, phosphorylated PDGFRβ (Y1021) (Rattus norvegicus, UniProt Q05030); assay: Immunohistochemistry of lung sections for pPDGFRβ in the AAV-PDGFB SU5416 hypoxia model; assay type: in vivo; settings: vs V-V and TA-V
# T3 construct: from tissue; host or cells: rat lung (male SD rats)
# Experimental: as §1
# [12] = system: PDGFB gene expression; assay: PDGFB lung gene expression (RT-qPCR) in the AAV-PDGFB SU5416 hypoxia rat model; assay type: in vivo; settings: RT-qPCR normalized to 18S, 4 weeks treatment
# Experimental: Four weeks later, 20 mg/kg of semaxanib (SU5416) was administered using intraperitoneal (i.p.) injection, and the rats were housed in a hypoxia chamber at fraction of inspired oxygen (FiO2) 10% for 3 weeks. […] Daily treatments were administered starting day 2 after removing the rats from the hypoxia chamber and were continued for 4 weeks (28 days). RNA from lung tissue was isolated using TRIzol™ reagent. The RNA concentration was measured using a Nanodrop™ 1000 Spectrophotometer. Equal amounts of RNA of each sample were transcribed to cDNA using a high-capacity cDNA Reverse Transcription kit. Reverse transcription (RT)-qPCR reactions were set up using TaqMan™ Gene Expression Master Mix and TaqMan™ primers/probes for PDGFB and 18S. The gene expression assay was carried out using a QuantStudio™ 6 Flex system. Gene expression was normalized to the expression of 18S, which was used as a housekeeping gene.
# [13] = inhaled or intranasal, 0.4 mg/kg
# T1 sequence (Q05030 32-1097): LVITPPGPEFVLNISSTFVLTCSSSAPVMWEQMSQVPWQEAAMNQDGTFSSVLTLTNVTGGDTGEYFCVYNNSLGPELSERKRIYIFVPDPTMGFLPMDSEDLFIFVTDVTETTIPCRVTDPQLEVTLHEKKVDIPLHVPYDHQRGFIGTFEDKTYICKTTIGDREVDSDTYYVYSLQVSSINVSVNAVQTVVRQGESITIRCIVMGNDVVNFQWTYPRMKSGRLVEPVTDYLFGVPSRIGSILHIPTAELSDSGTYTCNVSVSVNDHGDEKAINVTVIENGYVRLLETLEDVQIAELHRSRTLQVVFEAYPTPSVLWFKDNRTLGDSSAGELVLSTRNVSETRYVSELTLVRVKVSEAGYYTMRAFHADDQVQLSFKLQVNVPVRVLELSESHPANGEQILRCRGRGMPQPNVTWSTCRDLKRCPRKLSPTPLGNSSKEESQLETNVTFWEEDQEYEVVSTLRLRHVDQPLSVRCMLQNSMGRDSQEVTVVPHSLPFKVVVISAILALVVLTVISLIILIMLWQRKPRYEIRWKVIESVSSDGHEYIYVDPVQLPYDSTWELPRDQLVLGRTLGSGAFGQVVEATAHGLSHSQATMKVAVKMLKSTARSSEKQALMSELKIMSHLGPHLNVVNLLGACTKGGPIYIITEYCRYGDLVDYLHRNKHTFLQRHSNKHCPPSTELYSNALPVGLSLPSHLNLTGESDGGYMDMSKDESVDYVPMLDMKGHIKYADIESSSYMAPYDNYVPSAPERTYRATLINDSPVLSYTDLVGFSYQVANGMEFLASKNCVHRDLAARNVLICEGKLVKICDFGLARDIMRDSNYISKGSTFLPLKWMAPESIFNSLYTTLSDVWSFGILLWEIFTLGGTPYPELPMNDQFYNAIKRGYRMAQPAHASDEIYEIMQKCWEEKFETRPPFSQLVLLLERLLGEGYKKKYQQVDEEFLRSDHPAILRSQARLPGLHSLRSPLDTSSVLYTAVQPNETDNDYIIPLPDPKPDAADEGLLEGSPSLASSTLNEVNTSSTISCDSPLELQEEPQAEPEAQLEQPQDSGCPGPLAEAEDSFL
# T2 sequence (P20786 24-1088): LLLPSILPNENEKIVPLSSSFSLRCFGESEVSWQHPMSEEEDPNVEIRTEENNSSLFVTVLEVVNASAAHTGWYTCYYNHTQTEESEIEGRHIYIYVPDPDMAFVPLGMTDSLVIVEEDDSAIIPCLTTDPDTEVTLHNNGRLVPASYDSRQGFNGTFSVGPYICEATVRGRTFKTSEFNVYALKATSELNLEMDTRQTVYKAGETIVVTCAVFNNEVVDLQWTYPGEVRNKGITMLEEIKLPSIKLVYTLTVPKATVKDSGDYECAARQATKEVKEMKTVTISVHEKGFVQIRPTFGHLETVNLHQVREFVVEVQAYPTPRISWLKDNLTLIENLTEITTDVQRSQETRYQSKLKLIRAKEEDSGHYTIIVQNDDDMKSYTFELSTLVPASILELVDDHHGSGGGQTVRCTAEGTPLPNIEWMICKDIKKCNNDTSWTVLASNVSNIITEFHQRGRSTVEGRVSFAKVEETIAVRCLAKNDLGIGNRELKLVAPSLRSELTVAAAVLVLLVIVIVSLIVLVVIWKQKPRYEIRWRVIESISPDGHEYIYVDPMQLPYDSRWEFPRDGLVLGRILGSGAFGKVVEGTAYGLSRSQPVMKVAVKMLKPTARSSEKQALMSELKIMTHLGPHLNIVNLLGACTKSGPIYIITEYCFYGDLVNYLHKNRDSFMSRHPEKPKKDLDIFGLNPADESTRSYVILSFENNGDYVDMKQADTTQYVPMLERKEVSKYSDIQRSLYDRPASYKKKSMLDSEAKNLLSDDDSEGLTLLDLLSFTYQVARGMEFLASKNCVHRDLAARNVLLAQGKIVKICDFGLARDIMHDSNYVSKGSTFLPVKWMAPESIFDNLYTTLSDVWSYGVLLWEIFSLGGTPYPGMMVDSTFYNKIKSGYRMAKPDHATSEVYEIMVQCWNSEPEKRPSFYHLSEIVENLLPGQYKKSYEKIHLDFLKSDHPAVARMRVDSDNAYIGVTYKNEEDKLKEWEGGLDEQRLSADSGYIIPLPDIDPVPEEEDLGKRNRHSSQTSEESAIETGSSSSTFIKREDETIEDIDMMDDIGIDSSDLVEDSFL
# Sequence of PDGFRβ (P09619 33-1106): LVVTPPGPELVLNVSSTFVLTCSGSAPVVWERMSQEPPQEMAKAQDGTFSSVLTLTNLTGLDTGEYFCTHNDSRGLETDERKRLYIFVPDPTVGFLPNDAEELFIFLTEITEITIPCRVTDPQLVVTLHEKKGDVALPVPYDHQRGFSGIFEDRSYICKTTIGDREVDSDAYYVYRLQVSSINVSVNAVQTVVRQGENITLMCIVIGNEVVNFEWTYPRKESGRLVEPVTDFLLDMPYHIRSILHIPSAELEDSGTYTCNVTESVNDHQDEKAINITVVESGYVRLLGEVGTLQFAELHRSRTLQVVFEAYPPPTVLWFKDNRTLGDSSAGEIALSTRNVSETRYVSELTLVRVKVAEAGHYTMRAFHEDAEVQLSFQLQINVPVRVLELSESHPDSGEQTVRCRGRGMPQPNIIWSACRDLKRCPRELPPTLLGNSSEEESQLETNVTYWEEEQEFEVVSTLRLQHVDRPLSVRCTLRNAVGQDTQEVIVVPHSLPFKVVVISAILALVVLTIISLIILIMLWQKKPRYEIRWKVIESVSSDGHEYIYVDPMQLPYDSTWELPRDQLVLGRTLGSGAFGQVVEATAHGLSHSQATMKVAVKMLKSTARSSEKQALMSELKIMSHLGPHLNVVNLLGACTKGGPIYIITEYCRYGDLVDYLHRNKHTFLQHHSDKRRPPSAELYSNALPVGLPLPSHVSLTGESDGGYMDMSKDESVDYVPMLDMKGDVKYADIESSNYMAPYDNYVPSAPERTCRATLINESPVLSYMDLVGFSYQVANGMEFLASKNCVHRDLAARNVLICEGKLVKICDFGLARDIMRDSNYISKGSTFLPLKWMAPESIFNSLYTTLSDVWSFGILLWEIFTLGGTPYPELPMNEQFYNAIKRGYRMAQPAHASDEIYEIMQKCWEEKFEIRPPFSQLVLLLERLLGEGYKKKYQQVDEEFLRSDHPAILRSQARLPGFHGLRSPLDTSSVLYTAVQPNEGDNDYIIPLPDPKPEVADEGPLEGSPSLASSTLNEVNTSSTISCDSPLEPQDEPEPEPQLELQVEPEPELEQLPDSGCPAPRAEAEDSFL
# T3 sequence (Q05030 32-1097): as the sequence (Q05030 32-1097) above
smiles,measurement,setting,value
Cc1ccc(NC(=O)c2ccc(CN3CCN(C)CC3)cc2)cc1Nc1nccc(-c2cccnc2)n1 [imatinib],right ventricular systolic pressure (RVSP),[1],decreases
same,survival,[1],improves survival
same,potency against PDGFR isoforms,[2],less potent against the PDGFRβ isoform than the PDGFRα isoform
same,cardiopulmonary hemodynamics,[3],improves
COc1ccc(-c2cncc(N[C@@H](C)c3cccc(NC(=O)c4cncc(C)c4)c3)n2)cc1OC [Compound 1],Kp,[4]; 0.4 mg/kg,20 to 80
same,AUC(0-inf),[4]; [13],2130 ng·h/mL
same,AUC(0-t),[4]; [13],1940 ng·h/mL
same,half-life,"[4]; inhaled or intranasal, terminal half-life in lung (t1/2β)",6.43 h
same,half-life,"[4]; inhaled or intranasal, terminal half-life in plasma",2.08 h
same,lumen/media ratio of pulmonary arterioles,"[5]; H&E lung sections, four weeks treatment, mean±SEM",0.76±0.04
same,AVG RVSP,"[5]; Table 4, four weeks treatment",44.30 mm Hg
same,% Reduction RVSP,"[5]; Table 4, vs V-V",29%
same,decrease of RV/(LV+IVS) ratio compared to the vehicle (V-V) group,[5]; four weeks treatment,25%
same,decrease of RVSP compared to vehicle (V-V),[5]; four weeks treatment,29%
same,RVSP,"[5]; four weeks, tadalafil 10 mg/kg and ambrisentan 10 mg/kg gavage once daily, Compound 1 0.6 mg/kg inhaled twice daily, mean±SEM",44.3±1.9 mm Hg
same,"right ventricular hypertrophy, RV/(LV+IVS)","[5]; ratio of RV weight to LV plus interventricular septum weight, four weeks treatment, mean±SEM",0.36±0.01
same,maximum arterial and venous average concentrations,"[6]; male, Sprague Dawley",about 1 μg/mL
same,time after administration at which average arterial and venous concentrations reached zero,"[6]; male, Sprague Dawley",about 400 minutes
same,AUC(0-inf),[6]; inhaled or intranasal,25403.578 µg·min/g
same,AUC(0-t),[6]; inhaled or intranasal,23583.976 µg·min/g
same,pPDGFRβ levels in lung compared to animals treated with the vehicle,[7],decreased pPDGFRβ levels
same,fold more potent than imatinib at inhibiting PDGFB-stimulated phosphorylation of PDGFRβ,[8],about 2.5 fold
same,pPDGFRβ (Y1021) in the lungs,[9],decreases
same,phosphorylated PDGFRα (Y751) in the lungs,[10],decrease
same,phosphorylated PDGFRβ (Y1021) in the lungs,[11],decrease
same,effect on levels of PDGFB gene expression,[12],did not affect levels of PDGFB gene expression significantly
